The record followed here is ChEMBL document CHEMBL4304789, “Design, Synthesis, and Biological Evaluation of 2,4-Imidazolinedione Derivatives as HDAC6 Isoform-Selective Inhibitors” (ACS Med Chem Lett, 2019).

The target in assay [1] is Histone deacetylase 1 (Homo sapiens, UniProt Q13547). Briefly: Inhibition of HDAC1 (unknown origin) using Ac-LeuGlyLys(Ac)-AMC as substrate preincubated for 5 mins followed by substrate addition and measured after 60 mins by fluorescence based assay.
In assay [2] the target is Histone deacetylase 4 (Homo sapiens, UniProt P56524). Briefly: Inhibition of HDAC4 (unknown origin) using Ac-LeuGlyLys(tfa)-AMC as substrate preincubated for 5 mins followed by substrate addition and measured after 60 mins by fluorescence based assay.
Assay [3] deals with HCT-116. Briefly: Antiproliferative activity against human HCT116 cells incubated for 48 hrs by MTT assay. Format: functional, cell-based. The following applies: HCT-116, 48 h.
Assay [4] has as its system K562. Briefly: Antiproliferative activity against human K562 cells incubated for 48 hrs by MTT assay. Format: functional, cell-based. The following applies: K562, 48 h. (In general: Tetrazolium dyes change colour on reduction, which living cells bring about.)
Assay [5] has as its target Histone deacetylase 3 (Homo sapiens, UniProt O15379). Briefly: Inhibition of HDAC3 (unknown origin) using Ac-LeuGlyLys(Ac)-AMC as substrate preincubated for 5 mins followed by substrate addition and measured after 60 mins by fluorescence based assay.
Assay [6] concerns the target T1, Histone deacetylase 7 (Homo sapiens, UniProt Q8WUI4).
T1 sequence (Q8WUI4 whole entry): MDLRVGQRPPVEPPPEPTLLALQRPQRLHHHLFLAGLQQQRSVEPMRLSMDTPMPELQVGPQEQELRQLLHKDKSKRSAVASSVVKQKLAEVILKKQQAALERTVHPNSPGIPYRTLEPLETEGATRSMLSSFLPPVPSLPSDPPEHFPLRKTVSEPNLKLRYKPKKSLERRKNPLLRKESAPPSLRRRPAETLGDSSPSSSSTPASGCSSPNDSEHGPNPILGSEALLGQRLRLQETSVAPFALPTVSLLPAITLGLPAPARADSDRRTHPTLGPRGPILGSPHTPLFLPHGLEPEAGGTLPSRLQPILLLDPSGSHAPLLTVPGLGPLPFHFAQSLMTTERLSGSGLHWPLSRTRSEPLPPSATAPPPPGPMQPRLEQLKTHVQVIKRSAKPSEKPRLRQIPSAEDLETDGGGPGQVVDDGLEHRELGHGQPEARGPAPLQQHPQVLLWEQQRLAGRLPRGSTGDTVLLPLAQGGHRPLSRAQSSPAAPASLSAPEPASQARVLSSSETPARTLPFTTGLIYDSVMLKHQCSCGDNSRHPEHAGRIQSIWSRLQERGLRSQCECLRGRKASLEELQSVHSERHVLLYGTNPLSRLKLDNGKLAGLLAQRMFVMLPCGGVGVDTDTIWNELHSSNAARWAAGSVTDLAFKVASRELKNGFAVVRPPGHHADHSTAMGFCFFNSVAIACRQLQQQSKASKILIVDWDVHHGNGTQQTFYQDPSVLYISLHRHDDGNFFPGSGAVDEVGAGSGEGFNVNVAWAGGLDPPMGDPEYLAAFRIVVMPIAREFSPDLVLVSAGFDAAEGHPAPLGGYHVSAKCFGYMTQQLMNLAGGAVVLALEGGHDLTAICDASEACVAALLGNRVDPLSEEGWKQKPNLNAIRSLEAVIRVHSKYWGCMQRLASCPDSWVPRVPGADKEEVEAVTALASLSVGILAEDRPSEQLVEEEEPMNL
Briefly: Inhibition of HDAC7 (unknown origin) using Ac-LeuGlyLys(tfa)-AMC as substrate preincubated for 5 mins followed by substrate addition and measured after 60 mins by fluorescence based assay.

In assay [7] the target is T2, Histone deacetylase 8 (Homo sapiens, UniProt Q9BY41).
T2 sequence (Q9BY41 whole entry): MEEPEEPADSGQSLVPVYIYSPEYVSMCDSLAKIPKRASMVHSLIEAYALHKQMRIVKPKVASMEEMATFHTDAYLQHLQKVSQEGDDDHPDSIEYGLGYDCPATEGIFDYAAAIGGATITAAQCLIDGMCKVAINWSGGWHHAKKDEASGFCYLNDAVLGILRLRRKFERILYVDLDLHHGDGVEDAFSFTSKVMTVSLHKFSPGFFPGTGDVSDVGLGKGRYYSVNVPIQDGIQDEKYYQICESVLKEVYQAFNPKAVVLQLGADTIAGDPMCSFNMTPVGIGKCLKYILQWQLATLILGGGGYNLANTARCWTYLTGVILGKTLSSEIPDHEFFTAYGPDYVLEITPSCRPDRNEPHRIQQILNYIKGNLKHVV
Briefly: Inhibition of HDAC8 (unknown origin) using Ac-LeuGlyLys(tfa)-AMC as substrate preincubated for 5 mins followed by substrate addition and measured after 60 mins by fluorescence based assay.

For assay [8], the system named is RPMI-8226. Briefly: Antiproliferative activity against human RPMI8226 cells incubated for 48 hrs by MTT assay. Format: functional, cell-based. The following applies: RPMI-8226, 48 h.
For assay [9], the system named is A549. Briefly: Antiproliferative activity against human A549 cells incubated for 48 hrs by MTT assay. The format is functional, cell-based. The following applies: A549, 48 h.

Sequence of Histone deacetylase 4 (P56524 whole entry): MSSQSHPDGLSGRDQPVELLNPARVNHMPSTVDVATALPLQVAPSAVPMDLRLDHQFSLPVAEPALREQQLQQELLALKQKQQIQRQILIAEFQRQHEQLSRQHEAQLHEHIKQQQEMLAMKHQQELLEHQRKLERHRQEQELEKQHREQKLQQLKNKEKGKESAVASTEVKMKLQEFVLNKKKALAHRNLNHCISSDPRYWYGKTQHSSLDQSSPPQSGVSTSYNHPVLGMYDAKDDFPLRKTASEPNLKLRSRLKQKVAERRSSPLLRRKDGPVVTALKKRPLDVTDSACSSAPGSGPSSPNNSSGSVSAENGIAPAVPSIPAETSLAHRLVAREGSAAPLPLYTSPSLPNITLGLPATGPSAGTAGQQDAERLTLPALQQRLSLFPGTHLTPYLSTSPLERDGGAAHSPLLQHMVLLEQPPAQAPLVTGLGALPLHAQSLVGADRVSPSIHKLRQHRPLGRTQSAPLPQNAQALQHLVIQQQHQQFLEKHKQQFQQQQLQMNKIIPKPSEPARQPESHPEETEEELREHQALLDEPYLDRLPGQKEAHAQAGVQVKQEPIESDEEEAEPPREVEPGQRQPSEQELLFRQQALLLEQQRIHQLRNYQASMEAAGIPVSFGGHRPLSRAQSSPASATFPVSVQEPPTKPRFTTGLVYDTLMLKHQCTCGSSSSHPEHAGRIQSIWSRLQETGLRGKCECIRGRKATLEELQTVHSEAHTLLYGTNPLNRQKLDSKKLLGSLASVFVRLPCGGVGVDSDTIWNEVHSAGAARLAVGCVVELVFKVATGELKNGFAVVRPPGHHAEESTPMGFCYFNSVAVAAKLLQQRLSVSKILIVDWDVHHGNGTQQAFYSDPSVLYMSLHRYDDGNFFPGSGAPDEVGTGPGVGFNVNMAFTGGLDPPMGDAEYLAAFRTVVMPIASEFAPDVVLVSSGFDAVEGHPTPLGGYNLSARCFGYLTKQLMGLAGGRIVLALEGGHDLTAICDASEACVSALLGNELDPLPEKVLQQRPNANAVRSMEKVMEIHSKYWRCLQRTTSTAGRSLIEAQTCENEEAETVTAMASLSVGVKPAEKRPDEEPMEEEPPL
Sequence of Histone deacetylase 3 (O15379 whole entry): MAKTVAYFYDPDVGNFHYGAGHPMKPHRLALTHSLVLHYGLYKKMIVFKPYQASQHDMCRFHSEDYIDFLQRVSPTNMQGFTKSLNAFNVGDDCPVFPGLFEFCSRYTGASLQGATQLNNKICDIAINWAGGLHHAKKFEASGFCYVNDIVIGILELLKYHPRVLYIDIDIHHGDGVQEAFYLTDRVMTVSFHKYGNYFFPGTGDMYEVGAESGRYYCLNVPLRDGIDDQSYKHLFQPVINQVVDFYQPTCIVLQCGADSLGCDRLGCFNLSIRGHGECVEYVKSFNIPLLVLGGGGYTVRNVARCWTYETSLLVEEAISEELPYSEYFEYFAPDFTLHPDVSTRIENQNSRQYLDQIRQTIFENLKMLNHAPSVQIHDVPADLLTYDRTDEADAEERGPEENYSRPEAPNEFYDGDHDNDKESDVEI
Sequence of Histone deacetylase 1 (Q13547 whole entry): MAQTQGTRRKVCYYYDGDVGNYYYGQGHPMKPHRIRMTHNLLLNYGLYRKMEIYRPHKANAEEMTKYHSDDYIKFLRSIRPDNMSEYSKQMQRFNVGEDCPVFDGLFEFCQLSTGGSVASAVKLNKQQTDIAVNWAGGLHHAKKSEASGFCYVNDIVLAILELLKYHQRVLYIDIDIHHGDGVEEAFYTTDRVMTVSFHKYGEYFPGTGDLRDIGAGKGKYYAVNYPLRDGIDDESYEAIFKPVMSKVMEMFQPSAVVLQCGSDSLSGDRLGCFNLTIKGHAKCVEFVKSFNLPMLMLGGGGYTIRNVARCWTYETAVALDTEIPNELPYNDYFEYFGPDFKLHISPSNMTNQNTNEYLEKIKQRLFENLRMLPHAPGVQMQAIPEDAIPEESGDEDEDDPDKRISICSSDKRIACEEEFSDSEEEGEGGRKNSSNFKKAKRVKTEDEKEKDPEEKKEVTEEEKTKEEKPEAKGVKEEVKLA

Consider `O=C(CCC1C(=O)N(c2ccc(Cl)cc2)C(=O)N1Cc1ccc(Br)cc1)Nc1ccc(C(=O)NO)cc1` (configuration not stated), for which the 50% inhibitory concentration (IC50) is 194 nM in [1]; over 100000 nM in [2]; 1250 nM in assay [3]; 690 nM in [4]; 126 nM in assay [5]; 6000 nM in assay [6]. Further, the results for the IC50 in [7], in assay [8] and in assay [9] were 6700 nM, 360 nM and 5860 nM, respectively.

As to `O=C(CCC1C(=O)N(c2ccc(Cl)cc2)C(=O)N1Cc1ccccc1)Nc1ccc(C(=O)NO)cc1` (configuration not stated), the 50% inhibitory concentration (IC50) in assay [1] came to 111 nM; in assay [2], 27000 nM; in assay [3], 2250 nM; in assay [4] it was 830 nM; in assay [5] it was 96 nM; in [6] it was 8800 nM. Besides, the results for the concentration for half-maximal inhibition (IC50) in [7], in [8] and in assay [9] were 3600 nM, 640 nM and 9450 nM, respectively.

Turning to `Cc1ccc(CN2C(=O)N(c3ccc(Cl)cc3)C(=O)C2CCC(=O)Nc2ccc(C(=O)NO)cc2)cc1` (configuration not stated), the IC50 is 959 nM in [1]; over 100000 nM in assay [2]; 830 nM in assay [3]; 490 nM in assay [4]; 235 nM in [5]; over 100000 nM in [6]. Besides, the 50% inhibitory concentration (IC50) in [7] is over 100000 nM; in [8], 230 nM; in assay [9], 790 nM.

As usually defined, the IC50 is the point on the concentration scale where inhibition reaches its midpoint. The low end stands for greater potency, the high end for weaker potency.
